# Target: PRMT5:MEP50 (Homo sapiens, UniProt O14744)
# Experiment: PRMT5:MEP50 Flashplate Assay
# Type: biochemical
# Details: PRMT5:MEP50 inhibitory activity; 3H-SAM, 2 h at room temperature, top concentration 10 μM
# Description: PRMT5:MEP50 Flashplate Assay:
# Ten-point curves of inhibitor compounds were made using serial threefold dilutions in DMSO (the final top concentration of compound was 10 μM, 1% DMSO). Reaction mixture consisting of 50 mM Tris-HCl (pH 8.5), 0.002% Tween 20, 0.005% BSA (Bovine Serum Albumin), 1 mM TCEP, and 1% DMSO. Substrates are freshly prepared in reaction buffer. PRMT5:MEP50 was then added into substrate solution and mixed gently. Inhibitor compound was then added and incubated for 30 min at room temperature. ^3H-SAM was added to initiate the reaction. Reactions were incubated for 2 h at room temperature and quenched with 0.5 mM SAM (S-adenosyl-L-Methionine) in assay buffer. An aliquot of the reaction mix was transferred to a streptavidin-coated 384-well FlashPlate (PerkinElmer). After an incubation time of 1 h, the plate was washed and then read on a TopCount (PerkinElmer) to measure the amount of tritium incorporated into the peptide substrate. IC50 was calculated using conventional curve-fitting method.
# Sequence of PRMT5:MEP50 (O14744 whole entry, species assumed): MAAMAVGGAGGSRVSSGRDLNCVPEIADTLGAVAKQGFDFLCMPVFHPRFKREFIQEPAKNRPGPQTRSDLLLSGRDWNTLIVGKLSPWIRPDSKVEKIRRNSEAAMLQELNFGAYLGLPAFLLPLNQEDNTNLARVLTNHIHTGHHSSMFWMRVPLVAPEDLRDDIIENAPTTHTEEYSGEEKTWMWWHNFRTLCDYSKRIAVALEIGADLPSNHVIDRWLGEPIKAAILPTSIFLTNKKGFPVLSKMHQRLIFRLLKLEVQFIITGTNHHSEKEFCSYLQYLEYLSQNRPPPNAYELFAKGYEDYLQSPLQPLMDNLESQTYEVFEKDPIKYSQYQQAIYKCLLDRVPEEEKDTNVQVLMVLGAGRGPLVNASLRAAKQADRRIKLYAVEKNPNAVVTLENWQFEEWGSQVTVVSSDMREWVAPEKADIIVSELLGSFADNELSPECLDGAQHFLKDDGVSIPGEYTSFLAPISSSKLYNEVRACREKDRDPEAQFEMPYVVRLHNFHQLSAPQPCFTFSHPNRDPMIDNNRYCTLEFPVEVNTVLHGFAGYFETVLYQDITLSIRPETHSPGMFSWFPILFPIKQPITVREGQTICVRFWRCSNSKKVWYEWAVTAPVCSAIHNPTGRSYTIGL
# Sequence of PRMT5:MEP50 (Q9BQA1 whole entry partner, species assumed): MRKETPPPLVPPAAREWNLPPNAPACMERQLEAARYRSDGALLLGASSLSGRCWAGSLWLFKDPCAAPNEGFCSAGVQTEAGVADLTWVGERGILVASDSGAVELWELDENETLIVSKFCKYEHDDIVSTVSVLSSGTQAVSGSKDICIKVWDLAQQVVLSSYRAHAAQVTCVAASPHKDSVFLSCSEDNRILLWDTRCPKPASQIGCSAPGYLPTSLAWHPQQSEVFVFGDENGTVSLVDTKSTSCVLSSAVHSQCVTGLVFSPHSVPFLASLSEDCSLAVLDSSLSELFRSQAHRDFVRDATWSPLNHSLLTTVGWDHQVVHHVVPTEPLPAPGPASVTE
row,SMILES,IC50
1,"CC(C)[C@@H]1Cc2cc3ccc(CC[C@H]4C[C@@H](n5ccc6c(N)ncnc65)[C@H](O)[C@@H]4O)cc3nc2N1 [Compound 1-25, (1R,2S,3R,5S)-3-(4-amino-7H-pyrrolo[2,3-d]pyrimidin-7-yl)-5-(2-((S)-2-isopropyl-2,3-dihydro-1H-pyrrolo[2,3-b]quinolin-7-yl)ethyl)cyclopentane-1,2-diol]",< 1 nM
2,"C[C@@H]1CCc2cc3ccc(CC[C@H]4C[C@@H](n5ccc6c(N)ncnc65)[C@H](O)[C@@H]4O)cc3nc2N1 [Compound 1-37, (1R,2S,3R,5S)-3-(4-amino-7H-pyrrolo[2,3-d]pyrimidin-7-yl)-5-(2-((R)-2-methyl-1,2,3,4-tetrahydrobenzo[b][1,8]naphthyridin-8-yl)ethyl)cyclopentane-1,2-diol]",< 1 nM
3,"CC[C@@H]1Cc2cc3ccc(CC[C@H]4C[C@@H](n5ccc6c(N)ncnc65)[C@H](O)[C@@H]4O)cc3nc2N1 [Compound 1-24, (1R,2S,3R,5S)-3-(4-amino-7H-pyrrolo[2,3-d]pyrimidin-7-yl)-5-(2-((R)-2-ethyl-2,3-dihydro-1H-pyrrolo[2,3-b]quinolin-7-yl)ethyl)cyclopentane-1,2-diol]",< 1 nM
4,"Nc1ncnc2c1ccn2[C@@H]1C[C@H](CCc2ccc3cc4c(nc3c2)N[C@H](C2CC2)CC4)[C@@H](O)[C@H]1O [Compound 1-38, (1R,2S,3R,5S)-3-(4-amino-7H-pyrrolo[2,3-d]pyrimidin-7-yl)-5-(2-((S)-2-cyclopropyl-1,2,3,4-tetrahydrobenzo[b][1,8]naphthyridin-8-yl)ethyl)cyclopentane-1,2-diol]",< 1 nM
5,"Nc1ncnc2c1ccn2[C@@H]1C[C@H](CCc2ccc3cc4c(nc3c2)NOCCC4)[C@@H](O)[C@H]1O [Compound 1-17, (1R,2S,3R,5S)-3-(4-amino-7H-pyrrolo[2,3-d]pyrimidin-7-yl)-5-(2-(1,3,4,5-tetrahydro-[1,2]oxazepino[3,4-b]quinolin-9-yl)ethyl)cyclopentane-1,2-diol]",1 to 100 nM
6,"CC1(C)Cc2cc3ccc(CC[C@H]4C[C@@H](n5ccc6c(N)ncnc65)[C@H](O)[C@@H]4O)cc3nc2N1 [Compound 1-30, (1R,2S,3R,5S)-3-(4-amino-7H-pyrrolo[2,3-d]pyrimidin-7-yl)-5-(2-(2,2-dimethyl-2,3-dihydro-1H-pyrrolo[2,3-b]quinolin-7-yl)ethyl)cyclopentane-1,2-diol]",< 1 nM
7,"C[C@H]1Cc2cc3ccc(CC[C@H]4C[C@@H](n5ccc6c(N)ncnc65)[C@H](O)[C@@H]4O)cc3nc2N1 [Compound 1-20, (1R,2S,3R,5S)-3-(4-amino-7H-pyrrolo[2,3-d]pyrimidin-7-yl)-5-(2-((S)-2-methyl-2,3-dihydro-1H-pyrrolo[2,3-b]quinolin-7-yl)ethyl)cyclopentane-1,2-diol]",< 1 nM
8,"Nc1ncnc2c1ccn2[C@@H]1C[C@H](CCc2ccc3cc4cc[nH]c4nc3c2)[C@@H](O)[C@H]1O [Compound 4-3, (1S,2R,3S,5R)-3-(2-(1H-pyrrolo[2,3-b]quinolin-7-yl)ethyl)-5-(4-amino-7H-pyrrolo[2,3-d]pyrimidin-7-yl)cyclopentane-1,2-diol]",1 to 100 nM
9,"Nc1ncnc2c1ccn2[C@@H]1C[C@H](CCc2ccc3cc4c(nc3c2)N[C@H](C2CCC2)CC4)[C@@H](O)[C@H]1O [Compound 1-40, (1R,2S,3R,5S)-3-(4-amino-7H-pyrrolo[2,3-d]pyrimidin-7-yl)-5-(2-((S)-2-cyclobutyl-1,2,3,4-tetrahydrobenzo[b][1,8]naphthyridin-8-yl)ethyl)cyclopentane-1,2-diol]",1 to 100 nM
10,"Nc1ncnc2c1ccn2[C@@H]1C[C@H](CCc2ccc3cc4c(nc3c2)NCCC4)[C@@H](O)[C@H]1O [Compound 1-35, (1R,2S,3R,5S)-3-(4-amino-7H-pyrrolo[2,3-d]pyrimidin-7-yl)-5-(2-(1,2,3,4-tetrahydrobenzo[b][1,8]naphthyridin-8-yl)ethyl)cyclopentane-1,2-diol]",< 1 nM
11,"Nc1ncnc2c1ccn2[C@@H]1C[C@H](CCc2ccc3cc4c(=O)n(-c5ccccc5)[nH]c4nc3c2)[C@@H](O)[C@H]1O [Compound 1-33, 7-(2-((1S,2R,3S,4R)-4-(4-amino-7H-pyrrolo[2,3-d]pyrimidin-7-yl)-2,3-dihydroxycyclopentyl)ethyl)-2-phenyl-1,2-dihydro-3H-pyrazolo[3,4-b]quinolin-3-one]",> 100 nM
12,"Nc1ncnc2c1ccn2[C@@H]1C[C@H](CCc2ccc3cc4c(nc3c2)N[C@H](c2ccccc2)C4)[C@@H](O)[C@H]1O [Compound 1-28, (1R,2S,3R,5S)-3-(4-amino-7H-pyrrolo[2,3-d]pyrimidin-7-yl)-5-(2-((S)-2-phenyl-2,3-dihydro-1H-pyrrolo[2,3-b]quinolin-7-yl)ethyl)cyclopentane-1,2-diol]",1 to 100 nM
13,"Nc1ncnc2c1ccn2[C@@H]1C[C@H](CCc2ccc3cc4c(nc3c2)NCCCC4)[C@@H](O)[C@H]1O [Compound 1-41, (1R,2S,3R,5S)-3-(4-amino-7H-pyrrolo[2,3-d]pyrimidin-7-yl)-5-(2-(2,3,4,5-tetrahydro-1H-azepino[2,3-b]quinolin-9-yl)ethyl)cyclopentane-1,2-diol]",< 1 nM
14,"Nc1ncnc2c1ccn2[C@@H]1C[C@H](CCc2ccc3cc4c(nc3c2)N[C@H](C2CC2)C4)[C@@H](O)[C@H]1O [Compound 1-22, (1R,2S,3R,5S)-3-(4-amino-7H-pyrrolo[2,3-d]pyrimidin-7-yl)-5-(2-((S)-2-cyclopropyl-2,3-dihydro-1H-pyrrolo[2,3-b]quinolin-7-yl)ethyl)cyclopentane-1,2-diol]",< 1 nM
15,"C[C@H]1Cc2cc3ccc(CC[C@H]4C[C@@H](n5ccc6c(N)ncnc65)[C@H](O)[C@@H]4O)cc3nc2NO1 [Compound 1-15, (1R,2S,3R,5S)-3-(4-amino-7H-pyrrolo[2,3-d]pyrimidin-7-yl)-5-(2-((S)-3-methyl-3,4-dihydro-1H-[1,2]oxazino[3,4-b]quinolin-8-yl)ethyl)cyclopentane-1,2-diol]",1 to 100 nM
16,"C[C@H]1CCc2cc3ccc(CC[C@H]4C[C@@H](n5ccc6c(N)ncnc65)[C@H](O)[C@@H]4O)cc3nc2N1 [Compound 1-36, (1R,2S,3R,5S)-3-(4-amino-7H-pyrrolo[2,3-d]pyrimidin-7-yl)-5-(2-((S)-2-methyl-1,2,3,4-tetrahydrobenzo[b][1,8]naphthyridin-8-yl)ethyl)cyclopentane-1,2-diol]",< 1 nM

# Continued, values first:
row,IC50,SMILES
1,< 1 nM,"Nc1ncnc2c1ccn2[C@@H]1C[C@H](CCc2ccc3cc4c(nc3c2)NOC4)[C@@H](O)[C@H]1O [Compound 1-14, (1R,2S,3R,5S)-3-(4-amino-7H-pyrrolo[2,3-d]pyrimidin-7-yl)-5-(2-(1,3-dihydroisoxazolo[3,4-b]quinolin-7-yl)ethyl)cyclopentane-1,2-diol]"
2,< 1 nM,"NC1=Nc2cc(CC[C@H]3C[C@@H](n4ccc5c(N)ncnc54)[C@H](O)[C@@H]3O)ccc2[C@@H]2C[C@H]12 (single isomer, unassigned) [Compound 1-10]"
3,< 1 nM,"Nc1ncnc2c1ccn2[C@@H]1O[C@H](CCc2ccc3cc4c(nc3c2)NCCC4)[C@@H](O)[C@H]1O [Compound 3-13, (2R,3R,4S,5R)-2-(4-amino-7H-pyrrolo[2,3-d]pyrimidin-7-yl)-5-(2-(1,2,3,4-tetrahydrobenzo[b][1,8]naphthyridin-8-yl)ethyl)tetrahydrofuran-3,4-diol]"
4,1 to 100 nM,"Nc1ncnc2c1ccn2[C@@H]1O[C@H](CCc2ccc3c(c2)nc(N)n2ccnc32)[C@@H](O)[C@H]1O [Compound 3-11, (2R,3R,4S,5R)-2-(4-amino-7H-pyrrolo[2,3-d]pyrimidin-7-yl)-5-(2-(5-aminoimidazo-[1,2-c]quinazolin-8-yl)ethyl)tetrahydrofuran-3,4-diol]"
5,< 1 nM,"NC1=Nc2cc(CC[C@H]3C[C@@H](n4ccc5c(N)ncnc54)[C@H](O)[C@@H]3O)ccc2C2=NCCN12 [Compound 1-8, (1S,2R,3S,5R)-3-(2-(5-amino-2,3-dihydroimidazo[1,2-c]quinazolin-8-yl)ethyl)-5-(4-amino-7H-pyrrolo[2,3-d]pyrimidin-7-yl)cyclopentane-1,2-diol]"
6,< 1 nM,"Nc1ncnc2c1ccn2[C@@H]1C[C@H](CCc2ccc3cc4c(nc3c2)NCC4)[C@@H](O)[C@H]1O [Compound 1-7, (1R,2S,3R,5S)-3-(4-amino-7H-pyrrolo[2,3-d]pyrimidin-7-yl)-5-(2-(2,3-dihydro-1H-pyrrolo[2,3-b]quinolin-7-yl)ethyl)cyclopentane-1,2-diol]"
7,< 1 nM,"NC1=Nc2cc(CC[C@H]3O[C@@H](n4ccc5c(N)ncnc54)[C@H](O)[C@@H]3O)ccc2C2=NCCN12 [Compound 3-10, (2R,3S,4R,5R)-2-(2-(5-amino-2,3-dihydroimidazo[1,2-c]quinazolin-8-yl)ethyl)-5-(4-amino-7H-pyrrolo[2,3-d]pyrimidin-7-yl)tetrahydrofuran-3,4-diol]"
8,1 to 100 nM,"Nc1ncnc2c1ccn2[C@@H]1O[C@H](CCc2ccc3cc4c(nc3c2)NCC4)[C@@H](O)[C@H]1O [Compound 3-8, (2R,3R,4S,5R)-2-(4-amino-7H-pyrrolo[2,3-d]pyrimidin-7-yl)-5-(2-(2,3-dihydro-1H-pyrrolo[2,3-b]quinolin-7-yl)ethyl)tetrahydrofuran-3,4-diol]"
9,< 1 nM,"NC1=Nc2cc(CC[C@H]3C[C@@H](n4ccc5c(N)ncnc54)[C@H](O)[C@@H]3O)ccc2[C@H]2C[C@@H]12 (single isomer, unassigned) [Compound 1-11]"
10,1 to 100 nM,"Nc1ncnc2c1ccn2[C@@H]1C[C@H](CCc2ccc3cc4nn[nH]c4nc3c2)[C@@H](O)[C@H]1O [Compound 1-19, (1S,2R,3S,5R)-3-(2-(3H-[1,2,3]triazolo[4,5-b]quinolin-6-yl)ethyl)-5-(4-amino-7H-pyrrolo[2,3-d]pyrimidin-7-yl)cyclopentane-1,2-diol]"

# Source: patent US20220089612A1, “HETEROCYCLIC COMPOUNDS AS PRMT5 INHIBITORS” (ANGEX PHARMACEUTICAL, INC., priority 2017, published 2022)
